Where two headings read alike, the source gives them in different places.
Tests used:
Dd2b2^WT = assay: [3H]-hypoxanthine incorporation assay; assay type: cell-based, Plasmodium falciparum; conditions: Plasmodium falciparum, 72 h, read-out: Parent (Dd2b2^WT) IC50
Protocol: (§1) P. falciparum asexual blood stage parasites were cultured in human red blood cells (RBC, Blutspende SRK, Zurich) at a hematocrit of 5% in RPMI 1640 medium. The RPMI 1640 medium (ThermoFisher Scientific #51800−043) was supplemented with the following: 24 mM NaHCO3 (pH 7.3, Sigma-Aldrich #31437−500G-R), 25 mM Hepes (Sigma-Aldrich #H4034−500G), 0.36 mM hypoxanthine (Sigma-Aldrich # H9377−25G), 100 µg mL^-1 neomycin (Sigma-Aldrich #N6386−100G) and 0.5% Albumax II (Thermo Fisher #11021−045). Additionally, 2 mM choline chloride (279 mg/L, Sigma-Aldrich #C7527−100G) was added to the culture to block the induction of sexual commitment as described. ^[31^] The RPMI 1640 medium and components were dissolved in water (Milli-Q purified), stirred for at least 3 h, and then sterile filtered (0.22 μm pore size) with a bottle top filter (Corning # 431118). Parasite cultures were maintained in an atmosphere of 3% O2, 4% CO2, and 93% N2 in air-tight chambers at 37 °C. The [^3H]-hypoxanthine incorporation assay was used to test compound activity in the specific parasite lines as described.^[32^] Briefly, compounds were dissolved in DMSO (10 mM) and diluted in a hypoxanthine-free culture medium. A limiting dilution was performed over a 64-fold range (6-step twofold dilution) in a 96-well plate in duplicates. For every starting concentration, a limiting dilution was performed over a 64-fold range (6-step twofold dilution) in a 96-well plate in two biological duplicates. Parasites were added at 100 µL to each well containing the compound to obtain a final parasitemia of 0.3% and haematocrit of 1.25%. The plates were incubated for 48 h before 0.25 µCi of [^3H]-hypoxanthine was added per well for an additional 24 h. Parasites were harvested on a glass-fiber filter with a Microbeta FilterMate cell harvester (Perkin Elmer, Waltham, USA) and radioactivity was counted using a MicroBeta2 liquid scintillation counter (Perkin Elmer, Waltham, US). […] The fifty percent inhibitory concentration (IC50) was calculated by using nonlinear, four parameter (variable slope) curve fitting as described ^[33^] after importing into GraphPad Prism (version 8.3.0).
31 was used for resistance selection studies using the strain Dd2b2 (kindly provided by David Fidock). Resistance selection was done as described in ^[34^]. As summarized in Table S3, an initial inoculum of 2 x 10^9 asexual blood stage parasites (at 2-2.5% parasitemia) were cultured in three independent flasks. […] Cloning via limiting dilution was performed to obtain resistant clones for further characterization as described in section 2.2.5.

Dd2b2^pfmdr1 G182S = assay type: cell-based, Plasmodium falciparum; conditions: Dd2b2^pfmdr1 G182S vs Dd2b2^WT
Protocol: (§2) ^[a] 72-h [^3H] hypoxanthhine incorporation assay; Data is expressed as mean±s.d. The assay was performed in three independent biological experiments, each in biological duplicates
as §1

3D7^Cas9 pfmdr1 G182S = assay type: cell-based, Plasmodium falciparum; conditions: 3D7^Cas9 pfmdr1 G182S vs 3D7^WT
Protocol: (§3) ^[a] 72-h [^3H] hypoxanthhine incorporation assay; Data is expressed as mean±s.d.. The assay was performed in three independent biological experiments, each in biological duplicates.
(§4) P. falciparum asexual blood stage parasites were cultured in human red blood cells (RBC, Blutspende SRK, Zurich) at a hematocrit of 5% in RPMI 1640 medium. The RPMI 1640 medium (ThermoFisher Scientific #51800−043) was supplemented with the following: 24 mM NaHCO3 (pH 7.3, Sigma-Aldrich #31437−500G-R), 25 mM Hepes (Sigma-Aldrich #H4034−500G), 0.36 mM hypoxanthine (Sigma-Aldrich # H9377−25G), 100 µg mL^-1 neomycin (Sigma-Aldrich #N6386−100G) and 0.5% Albumax II (Thermo Fisher #11021−045). Additionally, 2 mM choline chloride (279 mg/L, Sigma-Aldrich #C7527−100G) was added to the culture to block the induction of sexual commitment as described. ^[31^] The RPMI 1640 medium and components were dissolved in water (Milli-Q purified), stirred for at least 3 h, and then sterile filtered (0.22 μm pore size) with a bottle top filter (Corning # 431118). Parasite cultures were maintained in an atmosphere of 3% O2, 4% CO2, and 93% N2 in air-tight chambers at 37 °C. The [^3H]-hypoxanthine incorporation assay was used to test compound activity in the specific parasite lines as described.^[32^] Briefly, compounds were dissolved in DMSO (10 mM) and diluted in a hypoxanthine-free culture medium. A limiting dilution was performed over a 64-fold range (6-step twofold dilution) in a 96-well plate in duplicates. For every starting concentration, a limiting dilution was performed over a 64-fold range (6-step twofold dilution) in a 96-well plate in two biological duplicates. Parasites were added at 100 µL to each well containing the compound to obtain a final parasitemia of 0.3% and haematocrit of 1.25%. The plates were incubated for 48 h before 0.25 µCi of [^3H]-hypoxanthine was added per well for an additional 24 h. Parasites were harvested on a glass-fiber filter with a Microbeta FilterMate cell harvester (Perkin Elmer, Waltham, USA) and radioactivity was counted using a MicroBeta2 liquid scintillation counter (Perkin Elmer, Waltham, US). The results were recorded, processed by subtraction of the mean background signal obtained from the uninfected RBC controls and expressed as percentage of untreated controls. The fifty percent inhibitory concentration (IC50) was calculated by using nonlinear, four parameter (variable slope) curve fitting as described ^[33^] after importing into GraphPad Prism (version 8.3.0).
The P. falciparum 3D7 wild type parasites in the ring stage were transfected as described.^[20] Infected RBCs collected from a 5 ml culture of synchronous ring stage parasites (5-6% parasitemia at ) were added to 250 µl of packed RBCs and were co-transfected with 50µg of Cas9 and 50 µg of donor plasmids using a Bio-Rad Gene Pulser Xcell Electroporation System (single exponential pulse, 310 V, 250 µF). 24 hours post-transfection, 5 nM WR99210 (MedChemExpress #HY-116387) was added to the culture medium for six days to select for gene-edited parasites, and henceforth parasites were maintained in normal culture medium until a stably propagating parasite population was obtained. After ~4 weeks post-transfection, stably propagating parasite population were obtained. The transgenic parasite line (3D7^pfmdr1 G182S) was cloned out using an established plaque assays via limiting dilution.^[35^] […]

[1] = system: P. falciparum NF54 strain; assay: [3H]-hypoxanthine incorporation assay, asexual blood stage; assay type: cell-based, Plasmodium falciparum; conditions: Plasmodium falciparum, NF54, asexual blood stage; mean ± s.d.; read-out: PfNF54 IC50 ± s.d.
Protocol: as §1

Dd2b2^pfmdr1 K1065N = assay type: cell-based, Plasmodium falciparum; conditions: Dd2b2^pfmdr1 K1065N vs Dd2b2^WT
Protocol: as §2, §4

3D7^WT = assay: [3H]-hypoxanthine incorporation assay; assay type: cell-based; conditions: Plasmodium falciparum, read-out: 3D7^WT IC50
Protocol: as §3, §4

[2] = Metabolic stability in liver S9 fractions; assay type: in vitro ADME; conditions: pooled mouse liver S9 fraction; 1 μM compound, 1 mg/mL pooled mouse liver S9, 37 °C; read-out: t1/2 Mouse Liver S9
Protocol: To evaluate phase I and phase II metabolic stability, the compound (1 μM) was incubated at 37 °C for 240 min with 1 mg/mL pooled mouse liver S9 fraction (Xenotech, Kansas City, USA), 2 mM NADPH, 1 mM UDPGA, 10 mM MgCl2, 5 mM GSH and 0.1 mM PAPS. Metabolic stability of reference compounds: testosterone, verapamil and ketoconazole was determined in parallel to confirm the enzymatic activity of mouse S9 fractions. At defined time points, the incubation was stopped by precipitation of aliquots of S9 enzymes with 2 volumes of cold acetonitrile containing internal standard (150 nM diphenhydramine or 15 nM for Altis Plus measurements). Samples were kept on ice until the end of the incubation, after which precipitated protein was removed by centrifugation (15 min, 4 °C, 4,000 g).

HepG2 = assay: Cytotoxicity assay (MTT); assay type: cell-based, human; conditions: Homo sapiens, HepG2; 100 µM, 48 h, MTT
Protocol: HepG2 (2x10^4 cells per well) were seeded in 96-well flat-bottom culture plates in 100 µL of culture medium (DMEM containing 10% fetal calve serum and 1% penicillin-streptomycin). After 24 hours, the medium was replaced by fresh medium containing test compounds in a final DMSO concentration of 1%. […] Epirubicin and doxorubicin were used as positive controls in serial dilutions starting from 10 µM, and rifampicin was used as a negative control (at 100 µM). Cell viability was determined 48 h after treatment with compounds by adding 0.1 volumes of 3-(4,5-dimethylthiazol-2-yl)-2,5-diphenyltetrazolium bromide (MTT) solution (5 mg/mL sterile PBS) (Sigma, St. Louis, MO) to the wells. After incubating the cells for 30 min at 37 °C (atmosphere containing 5% CO2), medium was removed and MTT crystals were dissolved in 75 µL of a solution containing 10% SDS and 0.5% acetic acid in DMSO. The optical density (OD) of the samples was measured photometrically at 570 nm in a PHERAstar Omega plate reader (BMG labtech, Ortenberg, Germany). Percent viability was calculated by normalizing sample ODs to those of the DMSO controls. Each compound was tested in at least two independent experiments and CC50 values were determined using the nonlinear regression function of GraphPad Prism 10 (GraphPad Software, San Diego, CA, USA).

Row | IC50 [1] | half-life at 1 µM [2] | SMILES | IC50 (Dd2b2^WT) | IC50 fold shift relative to parental clone (Dd2b2^pfmdr1 G182S) | IC50 fold shift relative to 3D7^WT strain (3D7^Cas9 pfmdr1 G182S) | IC50 fold shift relative to parental clone (Dd2b2^pfmdr1 K1065N) | IC50 (3D7^WT; 3D7, 72-h assay, mean±s.d.) | IC50 (3D7^WT; 3D7, 72 h) | inhibition at 100 µM (HepG2)
1 | 17 ± 3 nM | 5.4 ± 0.5 min | CC(C)(C)c1ccc(O)c(NC(=O)c2cccc(Oc3cc(C(F)(F)F)ccn3)c2)c1 [Compound 24, N-(5-(tert-Butyl)-2-hydroxyphenyl)-3-((4-(trifluoromethyl)pyridin-2-yl)oxy)benzamide] |  |  |  |  |  |  | 
2 |  |  | CCN(CC)CCCC(C)Nc1ccnc2cc(Cl)ccc12 (stereo not shown) [Chloroquine, chloroquine, reference compound] | 22.3 ± 1.3 nM |  |  |  |  | 1.9 ± 0.1 nM | 
3 |  |  | CCCCN(CCCC)CC(O)c1cc(Cl)cc2c1-c1ccc(Cl)cc1/C2=C/c1ccc(Cl)cc1 (stereo not shown) [Lumefantrine, lumefantrine, reference compound] | 1.6 ± 0.8 nM | 0.4 | 0.8 | 0.8 | 1.6 ± 0.8 nM |  | 
4 |  |  | OC(c1cc(C(F)(F)F)nc2c(C(F)(F)F)cccc12)C1CCCCN1 (stereo not shown) [Mefloquine, mefloquine, reference compound] | 1.1 ± 0.2 nM | 0.3 | 1.3 | 0.8 | 1.4 ± 0.5 nM |  | 
5 | 21.6 ± 2.65 nM | 18.4 ± 4.2 min | O=C(Nc1cc(CN2CCOCC2)cc(F)c1O)c1cccc(Oc2cc(C(F)(F)F)ccn2)c1 [Compound 32, N-(3-Fluoro-2-hydroxy-5-(morpholinomethyl)phenyl)-3-((4-(trifluoromethyl)pyridin-2-yl)oxy)benzamide] |  |  |  |  |  |  | 51 ± 1%
6 | 63 ± 7.4 nM | 49.9 ± 4 min | O=C(Nc1cc(CN2CCOCC2)cc(Cl)c1O)c1cccc(Oc2cc(C(F)(F)F)ccn2)c1 [Compound 33, N-(3-Chloro-2-hydroxy-5-(morpholinomethyl)phenyl)-3-((4-(trifluoromethyl)pyridin-2-yl)oxy)benzamide] |  |  |  |  |  |  | 66 ± 2%
7 |  |  | CCN(CC)Cc1cc(Nc2ccnc3cc(Cl)ccc23)ccc1O [Amodiaquine, amodiaquine, reference compound] | 0.8 ± 0.2 nM | 1.1 | 1.2 | 1.2 | 0.8 ± 0.2 nM |  | 

Row | SMILES | IC50 [1] | half-life at 1 µM [2] | IC50 (Dd2b2^WT) | IC50 fold shift relative to parental clone (Dd2b2^pfmdr1 G182S) | IC50 fold shift relative to 3D7^WT strain (3D7^Cas9 pfmdr1 G182S) | IC50 fold shift relative to parental clone (Dd2b2^pfmdr1 K1065N) | IC50 (3D7^WT; 3D7, 72-h assay, mean±s.d.) | IC50 (3D7^WT; 3D7, 72 h) | inhibition at 100 µM (HepG2)
8 | CCN(CC)Cc1ccc(O)c(NC(=O)c2cccc(Oc3cc(C(F)(F)F)ccn3)c2)c1 [Compound 27, N-(5-((diEthylamino)methyl)-2-hydroxyphenyl)-3-((4-(trifluoromethyl)pyridin-2-yl)oxy)benzamide] | 11 ± 3.4 nM |  | 3.5 ± 0.7 nM | 10.6 | 1.5 | 9.4 | 2.2 ± 0.2 nM |  | 
9 | O=C(Nc1cc(CN2CCOCC2)ccc1O)c1cccc(Oc2cc(C(F)(F)F)ccn2)c1 [Compound 30, N-(2-Hydroxy-5-(morpholinomethyl)phenyl)-3-((4-(trifluoromethyl)pyridin-2-yl)oxy)benzamide] | 10 ± 1.8 nM | 28.1 ± 5.5 min | 5.2 ± 0.3 nM |  |  | 11.8 | 2.6 ± 0.5 nM |  | 45 ± 21%

Reference: PMC12668308, “A Novel Antimalarial Agent that Inhibits Protein Synthesis in Plasmodium falciparum” (Angewandte Chemie (International Ed. in English), 2025)
